# Laboratory results: US20230202989A1, “COMPOUNDS” (JANSSEN PHARMACEUTICA NV, priority 2020, published 2023)
# Where two headings read alike, the source gives them in different places.
# Key:
# IL-1β = experiment: PBMC assay: inhibition of IL-1β release after LPS stimulation (MSD); type: cell-based; conditions: human PBMCs, read-out: IL1β IC50
# Procedure: Peripheral venous blood s collected from health individuals and human peripheral blood mononuclear cells (PBMCs) ere isolated from blood by Ficoll Histopaque (Sigma-Aldrich, A0561) density gradient centrifugation. After isolation, PBMCs were stored in liquid nitrogen for later use. Upon thawing, PBMC cell viability was determined in growth medium (RPMI media supplemented with 10% fetal bovine serum, 1% Pen-Strep and 1% L-glutamine). […] PBMCs were added at a density of 7.5×10^4 cells per well and incubated for 30 min in a 5% CO2 incubator at 37° C. LPS stimulation was performed by addition of 100 ng/ml LPS (final concentration, Invivogen, tlrl-smlps) for 6 hrs followed by collection of cellular supernatant and the analysis of IL-1β (μM) and TNF cytokines levels (μM) via MSD technology according to manufacturers' guidelines (MSD, K151A0H).
# (§1) The IC50 values (for IL-1β) and EC50 values (TNF) were obtained on compounds of the invention/examples, and are depicted in the following table: […]
# TNF = experiment: PBMC assay: TNF cytokine levels after LPS stimulation (MSD); type: cell-based; conditions: human PBMCs, 100 ng/ml LPS for 6 hrs
# Procedure: Peripheral venous blood s collected from health individuals and human peripheral blood mononuclear cells (PBMCs) ere isolated from blood by Ficoll Histopaque (Sigma-Aldrich, A0561) density gradient centrifugation. After isolation, PBMCs were stored in liquid nitrogen for later use. Upon thawing, PBMC cell viability was determined in growth medium (RPMI media supplemented with 10% fetal bovine serum, 1% Pen-Strep and 1% L-glutamine). Compounds were spotted in a 1:3 serial dilution in DMSO and diluted to the final concentration in 30 μl medium in 96 well plates (Falcon, 353072). PBMCs were added at a density of 7.5×10^4 cells per well and incubated for 30 min in a 5% CO2 incubator at 37° C. LPS stimulation was performed by addition of 100 ng/ml LPS (final concentration, Invivogen, tlrl-smlps) for 6 hrs followed by collection of cellular supernatant and the analysis of IL-1β (μM) and TNF cytokines levels (μM) via MSD technology according to manufacturers' guidelines (MSD, K151A0H).
# as §1
# [1] = Homo sapiens, PBMC, 6 h, 100 ng/ml LPS for 6 hrs, MSD, 96 well plates
# [2] = Homo sapiens, PBMC, LPS stimulation, 384 well plate
Compound,"IC50 (IL-1β; 100 ng/ml LPS for 6 hrs, MSD, 96 well plates) [µM]",EC50 (TNF) [µM],IC50 (IL-1β; [1]) [µM],"EC50 (TNF; Homo sapiens, PBMC, 6 h) [µM]",IC50 (IL-1β; [2]) [µM]
CCc1nn(CC(=O)Nc2ccc3nncn3c2)c(=O)c2ccc(Br)cc12 [Final Cpd 1],–,–,0.115,> 20,–
"CCc1nn(CC(=O)Nc2ccncn2)c(=O)c2ccc(Br)cc12 [Final Cpd 2, 2-(6-bromo-4-ethyl-1-oxo-phthalazin-2-yl)-N-pyrimidin-4-yl-acetamide]",–,–,0.19,> 10,–
CCc1nn(CC(=O)Nc2ccc3nncn3c2)c(=O)c2ccc(C3CC3)cc12 [Final Cpd 3],–,–,0.124,14.9,–
CCc1nn(CC(=O)Nc2ccncn2)c(=O)c2ccc(C)cc12 [Final Cpd 4],–,–,2.91,> 10,–
CCc1nn(CC(=O)Nc2ccncn2)c(=O)c2ccc(C3CC3)cc12 [Final Cpd 5],–,–,0.42,> 10,–
CCc1nn(CC(=O)Nc2ccncn2)c(=O)c2ccc(C(C)C)cc12 [Final Cpd 6],–,–,0.45,> 10,–
CCc1ccc2c(=O)n(CC(=O)Nc3ccncn3)nc(CC)c2c1 [Final Cpd 7],–,–,–,> 10,0.7
CCc1nn(CC(=O)Nc2ccncn2)c(=O)c2ccc(C(F)(F)F)cc12 [Final Cpd 9],–,–,0.58,> 10,–
"COc1ccc2c(=O)n(CC(=O)Nc3ccncn3)nc(C(C)C)c2c1 [Final Cpd 10, 2-(4-isopropyl-6-methoxy-1-oxo-phthalazin-2-yl)-N-pyrimidin-4-yl-acetamide]",–,–,2.32,> 10,–
CCc1nn(CC(=O)Nc2ccncn2)c(=O)c2ccc(OC)cc12 [Final Cpd 11],–,–,1.24,> 10,–
CCc1nn(CC(=O)Nc2ccncn2)c(=O)c2ccccc12 [Final Cpd 12],–,–,> 20,> 20,–
CCc1nn(CC(=O)Nc2cccnc2)c(=O)c2ccccc12 [Final Cpd 13],–,–,> 20,> 20,–
CCc1nn(CC(=O)NC2CC2)c(=O)c2ccccc12 [Final Cpd 14],–,–,> 20,> 20,–
CCc1nn(CC(=O)Nc2ccncn2)c(=O)c2ccc(C(F)F)cc12 [Final Cpd 16],–,–,–,> 10,0.92
CCc1nn(CC(=O)N[C@H]2C[C@@](C)(O)C2)c(=O)c2ccc(C(F)F)cc12 [Final Cpd 17],–,–,0.54,> 10,–
CCc1nn(CC(=O)N[C@H]2C[C@@](C)(O)C2)c(=O)c2ccc(Br)cc12 [Final Cpd 18],–,–,0.03,> 10,–
CCc1nn(CC(=O)N[C@H]2C[C@@](C)(O)C2)c(=O)c2ccc(C3CC3)cc12 [Final Cpd 21],–,–,0.29,> 10,–
CCc1ccc2c(=O)n(CC(=O)N[C@H]3C[C@@](C)(O)C3)nc(CC)c2c1 [Final Cpd 22],–,–,0.34,> 10,–
CC(C)c1nn(CC(=O)Nc2ccncn2)c(=O)c2ccc(C3CC3)cc12 [Final Cpd 23],–,–,0.287,12,–

# Now from value to compound:
"IC50 (IL-1β; 100 ng/ml LPS for 6 hrs, MSD, 96 well plates) [µM]",EC50 (TNF) [µM],IC50 (IL-1β; [1]) [µM],"EC50 (TNF; Homo sapiens, PBMC, 6 h) [µM]",IC50 (IL-1β; [2]) [µM],Compound
3.38,> 20,–,–,–,CC(C)c1nn(CC(=O)N[C@@H]2C[C@H](O)CN(C)C2)c(=O)c2ccc(C(F)(F)F)cc12 (mixture of isomers) [Final Cpd X133]
–,–,6.32,> 20,–,CC(C)c1nn(CC(=O)N[C@H]2COC[C@H](O)C2)c(=O)c2ccc(C(F)(F)F)cc12 (mixture of isomers) [Final Cpd X148]
–,–,9.81,> 20,–,CC(C)c1nn(CC(=O)N[C@@H]2COC[C@H](O)C2)c(=O)c2ccc(C(F)(F)F)cc12 (mixture of isomers) [Final Cpd X157]
–,–,0.113,> 20,–,"CC[C@@H](C)c1nn(CC(=O)Nc2ccc3nncn3c2)c(=O)c2ccc(C(F)(F)F)cc12 (single isomer, unassigned) [Final Cpd X12]"
–,–,0.351,> 20,–,"Cc1nnc2n1C[C@@H](NC(=O)Cn1nc(C(C)C)c3cc(C(F)(F)F)ccc3c1=O)CC2 (single isomer, unassigned) [Final Cpd X41]"
–,–,0.374,> 20,–,"CC[C@H](C)c1nn(CC(=O)Nc2ccc3nncn3c2)c(=O)c2ccc(C(F)(F)F)cc12 (single isomer, unassigned) [Final Cpd X43]"
–,–,2.76,> 20,–,"CC(C)c1nn(CC(=O)N[C@H]2CC[C@H]2O)c(=O)c2ccc(C(F)(F)F)cc12 (single isomer, unassigned) [Final Cpd X124]"
–,–,3.07,> 20,–,"CCN1CCC[C@H](NC(=O)Cn2nc(C(C)C)c3cc(C(F)(F)F)ccc3c2=O)C1=O (single isomer, unassigned) [Final Cpd X129]"
–,–,3.08,> 20,–,"CC(C)c1nn(CC(=O)N[C@@H]2C[C@H](O)CN(C)C2)c(=O)c2ccc(C(F)(F)F)cc12 (single isomer, unassigned) [Final Cpd X130]"
–,–,4.02,> 20,–,"CC(=O)N1C[C@H](O)C[C@@H](NC(=O)Cn2nc(C(C)C)c3cc(C(F)(F)F)ccc3c2=O)C1 (single isomer, unassigned) [Final Cpd X138]"
–,–,4.28,> 20,–,"CCN1CC[C@@H](NC(=O)Cn2nc(C(C)C)c3cc(C(F)(F)F)ccc3c2=O)[C@@H](O)C1 (single isomer, unassigned) [Final Cpd X139]"
–,–,4.61,> 20,–,"CCN1CC[C@@H](NC(=O)Cn2nc(C(C)C)c3cc(C(F)(F)F)ccc3c2=O)[C@H](O)C1 (single isomer, unassigned) [Final Cpd X140]"
–,–,5.94,> 20,–,"CCN1CC[C@H](NC(=O)Cn2nc(C(C)C)c3cc(C(F)(F)F)ccc3c2=O)[C@H](O)C1 (single isomer, unassigned) [Final Cpd X147]"
–,–,6.49,> 20,–,"CC(C)c1nn(CC(=O)N[C@@H]2CC[C@H]2O)c(=O)c2ccc(C(F)(F)F)cc12 (single isomer, unassigned) [Final Cpd X149]"
–,–,7.37,> 20,–,"CC(=O)N1C[C@H](O)C[C@H](NC(=O)Cn2nc(C(C)C)c3cc(C(F)(F)F)ccc3c2=O)C1 (single isomer, unassigned) [Final Cpd X150]"
–,–,7.63,> 20,–,"CCN1C[C@@H](F)C[C@H](NC(=O)Cn2nc(C(C)C)c3cc(C(F)(F)F)ccc3c2=O)C1 (single isomer, unassigned) [Final Cpd X153]"
–,–,10.3,> 20,–,"CC(=O)N1C[C@@H](O)C[C@H](NC(=O)Cn2nc(C(C)C)c3cc(C(F)(F)F)ccc3c2=O)C1 (single isomer, unassigned) [Final Cpd X159]"
–,–,15.1,> 20,–,"Cc1nnc2n1C[C@H](NC(=O)Cn1nc(C(C)C)c3cc(C(F)(F)F)ccc3c1=O)CC2 (single isomer, unassigned) [Final Cpd X163]"
–,–,15.3,> 20,–,"CC(=O)N1C[C@@H](O)C[C@@H](NC(=O)Cn2nc(C(C)C)c3cc(C(F)(F)F)ccc3c2=O)C1 (single isomer, unassigned) [Final Cpd X164]"
–,–,17.5,> 20,–,"CCN1CCC[C@@H](NC(=O)Cn2nc(C(C)C)c3cc(C(F)(F)F)ccc3c2=O)C1=O (single isomer, unassigned) [Final Cpd X166]"
–,–,> 20,> 20,–,"CCN1CC[C@H](NC(=O)Cn2nc(C(C)C)c3cc(C(F)(F)F)ccc3c2=O)[C@@H](O)C1 (single isomer, unassigned) [Final Cpd X172]"
–,–,0.031,> 20,–,CCN1CCC[C@H](NC(=O)Cn2nc(C(C)C)c3cc(Br)ccc3c2=O)C1 (stereo in doubt) [X-1032]
–,–,0.018,> 20,–,CCN1CC[C@H](O)[C@H](NC(=O)Cn2nc(C(C)C)c3cc(Br)ccc3c2=O)C1 (stereo in doubt) [X-1083]
–,–,0.076,13.7,–,CC(C)c1nn(CC(=O)Nc2ccc3nncn3c2)c(=O)c2ccc(C(F)(F)F)cc12 [Final Cpd 8]
–,–,0.176,> 20,–,CC(C)c1nn(CC(=O)Nc2ccncn2)c(=O)c2ccc(C(F)(F)F)cc12 [Final Cpd 15]
–,–,0.14,> 10,–,CCc1nn(CC(=O)N[C@H]2C[C@@](C)(O)C2)c(=O)c2ccc(C(F)(F)F)cc12 [Final Cpd 19]
–,–,0.24,> 10,–,CCc1nn(CC(=O)N[C@H]2C[C@@](C)(O)C2)c(=O)c2ccc(C(C)C)cc12 [Final Cpd 20]
–,–,–,> 20,–,"CC(C)c1nn(CC(=O)Nc2ncc3nc[nH]c3n2)c(=O)c2ccc(C(F)(F)F)cc12 [Final Cpd X1, 2-(4-isopropyl-1-oxo-6-(trifluoromethyl)phthalazin-2(1H)-yl)-N-(9H-purin-2-yl)acetamide]"
